# Where a SMILES comes first, the peptide text is derived from it. [ ]: non-standard residue; d: D form. The star is where a group is joined. 2Nal = N[C@@H](Cc1ccc2ccccc2c1)C(=O)O; Octanoyl = CCCCCCCC(=O)*; Dab = NCC[C@H](N)C(=O)O; AEEA = NCCOCCOCC(=O)O
# Columns and labels:
# [1] = test system: E. coli ATCC 25922; assay type: cell-based, Escherichia coli; conditions: MHB-II, inoculum 5 × 10^5 CFU/mL, 37 °C, 18–24 h, visual read-out, triplicate
# Experimental: (§1) In the original report on S3(B), MIC experiments were carried out by using non-cation-adjusted MHB-I media. To this, bovine serum albumin (BSA) and acetic acid were added. The rationale for choosing a medium without cations is that cation-adjusted media (MHB-II) in some cases causes substantial inhibition of the activity of cationic peptides. Furthermore, some peptides are at risk of precipitation when diluted into MHB medium, which can be avoided via the addition of BSA and acetic acid. However, the use of MHB-II is favorable to imitate the in vivo conditions as much as possible. Both media were tested with and without the addition of BSA and acetic acid by trial and error. The use of pure MHB-II was compatible with S3(B) and its fatty acid analogues, and therefore was chosen for the MIC determinations. Noticeably, MHB-I with BSA and acetic acid led to precipitation of lipopeptides in the present work.
# (§2) Cation-adjusted Mueller-Hinton broth (MHB-II) media (BD BBLTM Beef extract powder, BD BactoTMCasamino acids, and DIFCO soluble starch was from Becton, Dickinson and Company©, Franklin Lakes, NJ, USA). MHB media supplemented with 0.2% BSA was from Sigma Aldrich (St. Louis, MO, USA) and 0.01% acetic acid from VWR®. The 96 well plate cell-culture cluster, round-bottom, polypropylene plates, and V-shaped 96 well polypropylene plates were purchased from Corning® Inc., Costar®, Corning, NY, USA. Microseal® film was obtained from Bio-Rad Laboratories, Inc., Hercules, CA, USA. A VersaMaxTM Tunable Microplate Reader (Molecular Devices LLC, Sunnyvale, CA, USA) was used and the data were evaluated on a Softmax® Pro (Molecular Devices LLC).
# (§3) The MIC experiments were performed according to a protocol adapted from Wiegand et al., with minor modifications. The MICs were determined in triplicate. The peptides were dissolved in Milli-Q water to produce 10 mg/mL stock solutions in small glass containers. The bacterial isolates to be tested were streaked onto agar plates to obtain single colonies, and the plates were incubated at 37 °C for 18–24 h. The strains tested were S. aureus ATCC 29213, P. aeruginosa ATCC 27853, E. coli ATCC 25922, A. baumannii ATCC 19606, and K. pneumonia ATCC 13883. Test compounds were prepared in 2-fold dilutions in 50 μL volumes in polypropylene microtiter plates. Bacterial cultures grown to OD600 = 0.1–0.4 were diluted to a desired OD600 of 0.001–0.002 corresponding to 1 × 10^6 CFU/mL. Next, 50 μL bacterial suspension was added to the microtiter plates, giving a final bacterial inoculum of 5 × 10^5 CFU/mL per well. The plates were incubated at 37 °C for 18–24 h. […] The MIC values were visually evaluated, and the MIC was set to the lowest concentration […] based on triplicate measurements. […]
# [2] = test system: A. baumannii ATCC 19606; assay type: cell-based, Acinetobacter baumannii; conditions: MHB-II, inoculum 5 × 10^5 CFU/mL, 37 °C, 18–24 h, visual read-out, triplicate
# Experimental: as §1, with “The use of pure MHB-II was compatible with S3(B) and its fatty acid analogues, and therefore was chosen for the MIC determinations. Noticeably, MHB-I with BSA and acetic acid led to precipitation of lipopeptides in the present work.” left out
# (§4) Cation-adjusted Mueller-Hinton broth (MHB-II) media (BD BBLTM Beef extract powder, BD BactoTMCasamino acids, and DIFCO soluble starch was from Becton, Dickinson and Company©, Franklin Lakes, NJ, USA). […] A VersaMaxTM Tunable Microplate Reader (Molecular Devices LLC, Sunnyvale, CA, USA) was used and the data were evaluated on a Softmax® Pro (Molecular Devices LLC).
# (§5) The MIC experiments were performed according to a protocol adapted from Wiegand et al., with minor modifications. The MICs were determined in triplicate. […] The MIC values were visually evaluated, and the MIC was set to the lowest concentration […] based on triplicate measurements. […]
# [3] = test system: P. aeruginosa ATCC 27853; assay type: cell-based, Pseudomonas aeruginosa; conditions: MHB-II, inoculum 5 × 10^5 CFU/mL, 37 °C, 18–24 h, visual read-out, triplicate
# Experimental: as §1, with “The use of pure MHB-II was compatible with S3(B) and its fatty acid analogues, and therefore was chosen for the MIC determinations. Noticeably, MHB-I with BSA and acetic acid led to precipitation of lipopeptides in the present work.” left out
# as §4, §5
# [4] = test system: K. pneumonia ATCC 13883; assay type: cell-based, Klebsiella pneumoniae; conditions: K. pneumoniae ATCC 13883; MHB-II, inoculum 5 × 10^5 CFU/mL, 37 °C, 18–24 h, visual read-out, triplicate
# Experimental: as §1, §2, §3
# [5] = test system: human erythrocytes; assay: Hemolysis of red blood cells; conditions: 1 h; for %H, percent hemolytic activity against red blood cells at 150 μM: human erythrocytes, 0.5% v/v RBC suspension in PBS, peptide 150 μM, 37 °C, absorbance 414 nm, melittin positive control, triplicate
# Experimental: The hemolysis experiments were performed according to the protocol described in Reference. The peptides were tested at concentrations from 2.35–150 μM, using melittin as positive control and PBS as negative control. One premade tablet of PBS was dissolved in 200 mL Milli-Q water. The solution was kept in the refrigerator for a maximum of two days. The day before the test, the positive control wells of the 96 well polypropylene plates were precoated with 150 μL of melittin 5 μM solution in PBS. The solution was prepared in Protein LoBind Eppendorf tubes. The day of the test, the solution was discarded and the wells were washed three times with 150 μL PBS. A melittin 2.50 μM solution in PBS was prepared in Protein LoBind Eppendorf tubes—500 μL for every plate to be used. The mass of the peptide needed to reach a final concentration of 300 μM (to start testing down from 150 μM) was calculated, since a volume of 500 μL was desirable. […] The peptides were dissolved in PBS and tested in triplicate.
# In a 96 well polypropylene plate, 150 μL of peptide solution was transferred to three wells in Row A. Therefore, each plate could accommodate up to four peptides. A 2-fold serial dilution of the peptides was obtained by transferring 75 μL of the solutions from Row A to the corresponding wells in Row B, mixing a couple of times. From Row B, 75 μL was transferred to Row C and so on until Row G, where 75 μL was discarded after mixing. Volumes of 75 μL melittin (2.50 μM) was transferred to the positive control wells in H1–H6. Preparation of the RBC suspension: 1 mL of whole blood was transferred to a cryotube with 3 mL of PBS, and then it was gently mixed and centrifuged for 8 min at 3000 rpm. The supernatant was discarded, and the process was repeated twice; with 4 mL at 3000 rpm and 4 mL at 4000 rpm, respectively. From the final RBC pellet, 40 μL was transferred to 8 mL of PBS (multiplied by the number of test plates needed). This corresponded to a 0.5% v/v RBC suspension. The suspension was gently mixed and transferred into a CAPPOrigami reservoir. Using a multichannel pipette, 75 μL of the suspension was transferred into each well and mixed in the direction of increasing concentration. The control wells were mixed separately. The plates were covered with BioradMicroseal foil and incubated at 37 °C for 1 h. The plates (maximum two) were centrifuged for 10 min at 4000 rpm, followed by transferring of supernatant (60 μL) from each well into the corresponding wells in a clear ELISA plate. The absorbance (A) of each well was measured at λ = 414 nm using the software program Softmax(R) Pro.
smiles,measurement,setting,value
CCCCCCCC(=O)NCC[C@@H]1NC(=O)[C@H](CCN)NC(=O)[C@H](CCCNC(=N)N)NC(=O)[C@H](Cc2ccc3ccccc3c2)NC(=O)[C@H](CCN)NC(=O)[C@H](CC(N)=O)NC(=O)[C@H](CCN)NC(=O)[C@H](Cc2ccc3ccccc3c2)NC(=O)COCCOCCNC1=O [(C8)^5] (cyclo([Dab][2Nal]R[Dab][Dab](Octanoyl)[AEEA][2Nal][Dab]N)),"Minimum inhibitory concentration, EC",[1],16 µg/mL
same,"Minimum inhibitory concentration, AB",[2],16 µg/mL
same,"Minimum inhibitory concentration, PA",[3],8 µg/mL
same,"Minimum inhibitory concentration, KP",[4],>64 µg/mL
same,"%H, percent hemolytic activity against red blood cells at 150 μM",[5],42%
same,"%H, percent hemolytic activity against red blood cells at 150 μM",[5]; listed as (C8)^7,56%
same,HD50 (hemolysis),[5]; red cells of human,> 150 µM
